Assay [1] addresses Chromatin remodeling regulator CECR2 (Homo sapiens, UniProt Q9BXF3). Nature of the assay: Displacement of Alexa Fluor 647-labeled GSK tracer from FLAG-6His-Tev-fused CECR2 (424 to 543 residue) (unknown origin) measured after 15 mins by TR-FRET assay. For orientation: In TR-FRET formats the signal depends on donor and acceptor labels being close together.
The target of assay [2] is Bromodomain-containing protein 4 (Homo sapiens, UniProt O60885, Y390A). Nature of the assay: Displacement of Alexa Fluor 647-labeled ligand from BRD4 BD1 Y390A mutant (1 to 477 residue) (unknown origin) measured after 30 mins by TR-FRET assay.
For assay [3], the target named is T1, ATPase family AAA domain-containing protein 2 (Homo sapiens, UniProt Q6PL18).
T1 sequence (Q6PL18 whole entry): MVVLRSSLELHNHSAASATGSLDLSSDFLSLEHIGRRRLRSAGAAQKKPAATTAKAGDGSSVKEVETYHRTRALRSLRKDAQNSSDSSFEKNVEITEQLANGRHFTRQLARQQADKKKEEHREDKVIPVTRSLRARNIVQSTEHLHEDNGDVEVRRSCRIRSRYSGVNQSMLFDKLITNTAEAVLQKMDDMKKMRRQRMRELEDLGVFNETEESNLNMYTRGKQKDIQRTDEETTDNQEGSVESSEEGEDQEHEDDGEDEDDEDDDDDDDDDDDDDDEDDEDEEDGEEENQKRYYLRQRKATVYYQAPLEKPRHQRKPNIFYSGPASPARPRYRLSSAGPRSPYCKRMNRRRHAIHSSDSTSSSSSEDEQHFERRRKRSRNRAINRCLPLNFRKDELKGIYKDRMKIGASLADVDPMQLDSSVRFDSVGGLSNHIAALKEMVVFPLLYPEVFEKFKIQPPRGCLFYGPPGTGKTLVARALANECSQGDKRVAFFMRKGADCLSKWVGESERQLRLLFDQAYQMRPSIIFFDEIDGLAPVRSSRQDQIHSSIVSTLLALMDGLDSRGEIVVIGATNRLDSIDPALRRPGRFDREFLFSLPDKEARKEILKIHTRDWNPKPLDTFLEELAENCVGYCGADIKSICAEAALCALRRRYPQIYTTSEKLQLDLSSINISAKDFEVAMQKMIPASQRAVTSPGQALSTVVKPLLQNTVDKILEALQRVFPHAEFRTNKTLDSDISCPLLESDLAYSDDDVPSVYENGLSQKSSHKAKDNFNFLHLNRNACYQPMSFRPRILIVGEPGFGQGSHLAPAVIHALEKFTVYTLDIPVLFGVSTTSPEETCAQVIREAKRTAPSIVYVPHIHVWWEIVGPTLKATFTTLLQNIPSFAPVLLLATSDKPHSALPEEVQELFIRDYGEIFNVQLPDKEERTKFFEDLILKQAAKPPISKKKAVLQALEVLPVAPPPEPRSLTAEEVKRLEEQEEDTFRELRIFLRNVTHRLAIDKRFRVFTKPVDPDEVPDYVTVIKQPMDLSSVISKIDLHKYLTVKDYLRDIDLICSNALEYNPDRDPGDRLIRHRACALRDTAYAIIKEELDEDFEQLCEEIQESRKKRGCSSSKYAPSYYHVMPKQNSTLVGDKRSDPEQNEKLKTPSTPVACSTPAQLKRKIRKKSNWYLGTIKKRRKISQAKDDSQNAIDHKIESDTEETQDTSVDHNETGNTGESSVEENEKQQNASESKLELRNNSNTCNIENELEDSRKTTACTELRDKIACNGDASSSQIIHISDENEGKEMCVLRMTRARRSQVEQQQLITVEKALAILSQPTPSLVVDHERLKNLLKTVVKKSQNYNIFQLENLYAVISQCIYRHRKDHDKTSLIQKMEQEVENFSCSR
Briefly: Displacement of Alexa Fluor 488-labeled ligand from FLAG-6His-Tev-fused ATAD2 (981 to 1121 residue) (unknown origin) measured after 30 mins by TR-FRET assay.

SMILES strings stand for the structures.

Chain of Chromatin remodeling regulator CECR2 (Q9BXF3 whole entry, the tested form may be a part): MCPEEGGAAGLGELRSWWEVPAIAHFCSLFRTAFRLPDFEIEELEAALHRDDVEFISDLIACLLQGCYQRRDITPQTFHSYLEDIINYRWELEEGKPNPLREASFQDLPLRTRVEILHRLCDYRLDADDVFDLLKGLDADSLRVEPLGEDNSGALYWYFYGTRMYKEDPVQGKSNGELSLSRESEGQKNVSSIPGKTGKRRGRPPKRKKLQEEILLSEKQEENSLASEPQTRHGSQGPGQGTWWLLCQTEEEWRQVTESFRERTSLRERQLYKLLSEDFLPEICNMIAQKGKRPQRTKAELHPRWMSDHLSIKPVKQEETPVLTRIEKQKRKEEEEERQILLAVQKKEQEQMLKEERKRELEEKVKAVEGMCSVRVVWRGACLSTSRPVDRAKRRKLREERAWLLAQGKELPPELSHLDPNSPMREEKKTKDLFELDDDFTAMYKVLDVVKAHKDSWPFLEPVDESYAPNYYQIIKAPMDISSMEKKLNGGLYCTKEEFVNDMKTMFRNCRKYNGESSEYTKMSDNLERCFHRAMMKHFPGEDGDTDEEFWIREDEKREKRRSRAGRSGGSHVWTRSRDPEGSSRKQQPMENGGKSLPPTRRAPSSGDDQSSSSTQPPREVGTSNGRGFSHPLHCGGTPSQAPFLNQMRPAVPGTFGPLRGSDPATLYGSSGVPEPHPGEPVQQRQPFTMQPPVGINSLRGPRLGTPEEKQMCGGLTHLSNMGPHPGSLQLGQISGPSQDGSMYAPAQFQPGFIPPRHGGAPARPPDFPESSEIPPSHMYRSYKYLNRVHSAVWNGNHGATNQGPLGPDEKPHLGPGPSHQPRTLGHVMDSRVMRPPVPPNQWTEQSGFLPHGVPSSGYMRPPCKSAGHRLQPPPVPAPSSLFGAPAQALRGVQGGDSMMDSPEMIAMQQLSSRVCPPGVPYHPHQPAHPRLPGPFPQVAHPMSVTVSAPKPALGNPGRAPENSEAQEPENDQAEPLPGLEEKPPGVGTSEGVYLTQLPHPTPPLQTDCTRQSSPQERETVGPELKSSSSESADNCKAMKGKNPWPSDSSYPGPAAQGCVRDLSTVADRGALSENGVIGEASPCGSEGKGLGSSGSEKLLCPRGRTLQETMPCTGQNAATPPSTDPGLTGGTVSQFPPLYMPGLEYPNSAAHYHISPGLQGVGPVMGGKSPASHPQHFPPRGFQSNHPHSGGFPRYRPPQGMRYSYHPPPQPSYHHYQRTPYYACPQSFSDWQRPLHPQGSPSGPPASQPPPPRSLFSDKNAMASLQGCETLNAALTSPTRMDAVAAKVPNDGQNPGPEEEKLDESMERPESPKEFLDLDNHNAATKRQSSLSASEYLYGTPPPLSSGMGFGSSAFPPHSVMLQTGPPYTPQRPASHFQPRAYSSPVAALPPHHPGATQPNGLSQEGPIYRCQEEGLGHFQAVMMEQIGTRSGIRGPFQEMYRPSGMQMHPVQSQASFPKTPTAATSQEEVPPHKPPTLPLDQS

In general, IC50 refers to the concentration needed to halve the response being measured. Higher therefore signals weaker potency. On to `C[C@H]1CCN(S(=O)(=O)c2cc(NC(=O)CN3C(=O)N[C@](C)(C4CC4)C3=O)ccc2Br)C1`, for which the values for the IC50 in assay [1], in assay [2] and in assay [3] were 0.126 µM, above 50.1 µM and 0.1 µM, respectively.
Regarding `CC(=O)N1CCc2c(nnn2CC(=O)Nc2ccc(Br)c(S(=O)(=O)N3CC[C@H](C)C3)c2)C1`, the results for the IC50 in assay [1], in assay [2] and in assay [3] were 0.1 µM, above 50.1 µM and 1.58 µM, respectively.
Take `C[C@H]1CCN(S(=O)(=O)c2cc(NC(=O)Cn3ccnn3)ccc2Br)C1`: the results for the IC50 in assay [1], in assay [2] and in assay [3] were 3.98 µM, above 50.1 µM and 3.98 µM, respectively.
In the case of `C[C@H]1CCN(S(=O)(=O)c2cc(NC(=O)Cn3nnc4c3CCN(C)C4)ccc2Br)C1`, the figures for the IC50 in assay [1], in assay [2] and in assay [3] were 0.0501 µM, above 50.1 µM and 2 µM, respectively.
Regarding `O=C(CN1C(=O)CNC1=O)Nc1ccc(Cl)c(S(=O)(=O)N2CCCCCC2)c1`, the IC50 in assay [1] is 12.6 µM; in assay [2] it was above 50.1 µM; in assay [3], 1.26 µM.
On the same counts, the results for `O=C(CN1C(=O)CNC1=O)Nc1ccc(Cl)c(S(=O)(=O)N2CCC(C3CC3)C2)c1` (racemic) are 0.501 µM, above 50.1 µM and 0.501 µM.
As for `C[C@@]1(C2CC2)NC(=O)N(CC(=O)Nc2ccc(Br)c(S(=O)(=O)N3CCCC3)c2)C1=O`, the IC50 was 0.398 µM in assay [1], above 50.1 µM in assay [2] and 0.251 µM in assay [3].
On the same counts, the results for `C[C@H]1CCN(S(=O)(=O)c2cc(NC(=O)Cn3nnc4ccccc43)ccc2Br)C1` are 0.2 µM, 15.8 µM and 2 µM.
`C[C@H]1CCN(S(=O)(=O)c2cc(NC(=O)Cn3nnc4c3CN(C)CC4)ccc2Br)C1`: the concentration for half-maximal inhibition (IC50) was 0.251 µM in assay [1], above 50.1 µM in assay [2] and 2 µM in assay [3].
In the case of `C[C@@H]1CCN(S(=O)(=O)c2cc(NC(=O)CN3C(=O)CNC3=O)ccc2Cl)C1`, the IC50 was 5.01 µM in assay [1], above 50.1 µM in assay [2] and 1 µM in assay [3].
Consider `CCCc1cnnn1CC(=O)Nc1ccc(Br)c(S(=O)(=O)N2CC[C@H](C)C2)c1`, for which the IC50 was 0.0794 µM in assay [1], 10 µM in assay [2] and 3.16 µM in assay [3].
On the same counts, the results for `C[C@@H]1CN(S(=O)(=O)c2cc(NC(=O)CN3C(=O)CNC3=O)ccc2Cl)C[C@H]1C` (racemic) are 2 µM, 20 µM and 0.251 µM.
Regarding `O=C(CN1C(=O)CNC1=O)Nc1ccc(Cl)c(S(=O)(=O)N2CCC3(CC3)C2)c1`, the IC50 in assay [1] is 3.98 µM; in assay [2] it was above 50.1 µM; in assay [3] it was 1 µM.
In the case of `CCN1CCc2c(nnn2CC(=O)Nc2ccc(Br)c(S(=O)(=O)N3CC[C@H](C)C3)c2)C1`, the IC50 in assay [1] was 0.0501 µM; in assay [2], 31.6 µM; in assay [3] it was 2.51 µM.
The matching figures for `Cc1nnn(CC(=O)Nc2ccc(Br)c(S(=O)(=O)N3CC[C@H](C)C3)c2)c1C`: 1 µM, above 50.1 µM and 6.31 µM.
Take `O=C(CN1C(=O)CNC1=O)Nc1ccc(Cl)c(S(=O)(=O)N2CCCCC2)c1`: the IC50 in assay [1] was 31.6 µM; in assay [2] it was above 50.1 µM; in assay [3] it was 2.51 µM.
As to `CC1(C)CCN(S(=O)(=O)c2cc(NC(=O)CN3C(=O)CNC3=O)ccc2Cl)C1`, the IC50 in assay [1] was 25.1 µM; in assay [2] it was above 50.1 µM; in assay [3], 3.16 µM.
For `C[C@H]1CCN(S(=O)(=O)c2cc(NC(=O)Cn3nncc3CN(C)C)ccc2Br)C1`, the IC50 in assay [1] is 0.0794 µM; in assay [2], above 50.1 µM; in assay [3], 3.98 µM.
On the same counts, the results for `O=C(CN1C(=O)CNC1=O)Nc1ccc(Cl)c(S(=O)(=O)C2CCCCC2)c1` are above 100 µM, above 50.1 µM and above 100 µM.
For the compound `O=C(CN1C(=O)CNC1=O)Nc1ccc(Cl)c(S(=O)(=O)n2ccnc2)c1`, the results for the IC50 in assay [1], in assay [2] and in assay [3] were above 100 µM, above 50.1 µM and above 100 µM, respectively.
`CC1CCCN1S(=O)(=O)c1cc(NC(=O)CN2C(=O)CNC2=O)ccc1Cl` (racemic): the IC50 in assay [1] is 7.94 µM; in assay [2] it was 31.6 µM; in assay [3], 2.51 µM.
The matching figures for `C[C@H]1CCN(S(=O)(=O)c2cc(NC(=O)Cn3nnc4c3CCNC4)ccc2Br)C1`: 0.251 µM, 15.8 µM and 2.51 µM.
On to `CN1CCc2c(nnn2CC(=O)Nc2ccc(Br)c(S(=O)(=O)N3CC[C@@H](C4CC4)C3)c2)C1`, for which the IC50 in assay [1] is 0.0398 µM; in assay [2], 25.1 µM; in assay [3] it was 3.16 µM.
Consider `C[C@H]1CCN(S(=O)(=O)c2cc(NC(=O)Cn3cc(CN(C)C)nn3)ccc2Br)C1`, for which the results for the IC50 in assay [1], in assay [2] and in assay [3] were 0.251 µM, above 50.1 µM and 1.26 µM, respectively.
On to `COCC1CCN(S(=O)(=O)c2cc(NC(=O)CN3C(=O)CNC3=O)ccc2Cl)C1` (racemic), for which the IC50 in assay [1] was 3.98 µM; in assay [2], above 50.1 µM; in assay [3], 1 µM.
On the same counts, the results for `C[C@@H]1CN(S(=O)(=O)c2cc(NC(=O)CN3C(=O)CNC3=O)ccc2Cl)C[C@@H]1C` are 20 µM, above 50.1 µM and 2 µM.
Take `C[C@H]1CCN(S(=O)(=O)c2cc(NC(=O)CN3C(=O)CNC3=O)ccc2Cl)C1`: the IC50 in assay [1] is 3.16 µM; in assay [2] it was above 50.1 µM; in assay [3] it was 0.794 µM.
On to `CCCc1cn(CC(=O)Nc2ccc(Br)c(S(=O)(=O)N3CC[C@H](C)C3)c2)nn1`, for which the IC50 in assay [1] was 1.58 µM; in assay [2] it was 39.8 µM; in assay [3], 1.58 µM.
With `CN1CCc2c(nnn2CC(=O)Nc2ccc(Cl)c(S(=O)(=O)N3CC[C@@H](C4CC4)C3)c2)C1`, the IC50 was 0.126 µM in assay [1], 39.8 µM in assay [2] and 6.31 µM in assay [3].
Turning to `COCc1cn(CC(=O)Nc2ccc(Br)c(S(=O)(=O)N3CC[C@H](C)C3)c2)nn1`, the concentration for half-maximal inhibition (IC50) in assay [1] was 1.58 µM; in assay [2] it was above 50.1 µM; in assay [3], 2.51 µM.
Take `C[C@H]1CCN(S(=O)(=O)c2cc(NC(=O)Cn3c(=O)[nH]c4ccccc43)ccc2Br)C1`: the IC50 in assay [1] is 0.501 µM; in assay [2], above 50.1 µM; in assay [3] it was 1.26 µM.
The matching figures for `COCc1cnnn1CC(=O)Nc1ccc(Br)c(S(=O)(=O)N2CC[C@H](C)C2)c1`: 0.251 µM, 50.1 µM and 1 µM.
The matching figures for `C[C@H]1CCN(S(=O)(=O)c2cc(NC(=O)Cc3coc4ccccc34)ccc2Br)C1`: 7.94 µM, above 50.1 µM and 2.51 µM.
With `CN(C)S(=O)(=O)c1cc(NC(=O)CN2C(=O)CNC2=O)ccc1Cl`, the IC50 in assay [1] was 79.4 µM; in assay [2], 39.8 µM; in assay [3], 12.6 µM.
On the same counts, the results for `C[C@H]1CCN(S(=O)(=O)c2cc(NC(=O)Cc3noc4ccccc34)ccc2Br)C1` are 0.251 µM, 25.1 µM and 1 µM.
For the compound `C[C@@H]1CN(S(=O)(=O)c2cc(NC(=O)CN3C(=O)NC(C)(C4CC4)C3=O)ccc2Br)C[C@H]1C` (relative stereo), the values for the IC50 in assay [1], in assay [2] and in assay [3] were 0.126 µM, 39.8 µM and 0.0251 µM, respectively.

The values are drawn from ChEMBL document CHEMBL4354881, “Optimization of Potent ATAD2 and CECR2 Bromodomain Inhibitors with an Atypical Binding Mode” (J Med Chem, 2020).
